Laboratory results as given in patent US8183048B2, “Assay for screening/ranking antioxidants based on their effects on membrane sterol lateral organization” (Temple University- Of the Commonwealth System of Higher …, priority 2007, dated 2012).
Values joined by “and” are separate entries in the source; they are usually repeats but may differ in a detail not shown here. Equal values may be shown once. “Also recorded” adds a separate entry of the source.

Tests used:
[1] = AAPH-induced DHE oxidation, antioxidant-induced lag phase vs sterol mol % (sterol superlattice assay); type: biochemical
Method: Two-component or multi-component models of large unilamellar vesicles (LUVs) containing DHE (dehydroergosterol) are prepared as described above. The sizes of LUVs are in the range of 100-800 nm in diameter. [Please quantify the term “large”]. A prooxidant or a free radical generator is added to a fluorescence cuvette containing LUVs that have been incubated with an antioxidant. In certain embodiments, sterol oxidation was induced by a water-soluble free radical generator, AAPH (2,2′-azobis(2-amidinopropane) dihydrochloride). […] Plotting the lag phase length (τ) (or the initial rate Ri, in the case of lacking lag phase) vs sterol mole fraction in the presence of low dose antioxidant, a biphasic change in (or Ri) at a given Cr (e.g., 20.0, 22.2, 25.0, 33.3, 40.0 and 50.0 mol % sterol) is observed (see FIGS. 4, 8, and 9). This experiment will be repeated at different antioxidant doses. A threshold antioxidant concentration (Cth) is the highest antioxidant concentration at which the biphasic change in τ with sterol mol % may still be detected. The τ, Ri, and Cth values will give information about the antioxidant activity or potency and side effects. The τ and Ri values will give information about the antioxidant activity or potency. […] The ratio of the Ri value in the presence of antioxidants to that in the absence of antioxidants (Ri/Rio) also reflects the potency of the antioxidant. […] The Cth value indicates the potential toxicity of the antioxidant. The lower the Cth value is, the higher the potential damage to cell membranes becomes. The Cth values will be determined based on the capability of the antioxidant to abolish the biphasic change of either τ or Ri with membrane sterol mole fraction. All of the antioxidants, either producing τ or Ri, can be compared and ranked based on the Cth values.
Dehydroergosterol (DHE; Sigma, St. Louis, Mo.) was first purified by HPLC, and then dissolved in CHCl3 to make a stock solution. The concentration of DHE stock solution was calculated by absorbance in dioxane at 326 nm, using an extinction coefficient equal to 10,600 M^−1 cm^−1. DMPC was purchased from Avanti Polar Lipids (Alabaster, Ala.). The concentration of DMPC in stock solution and in LUVs was determined by the method of Bartlett (61). The prooxidant AAPH ((2,2′-azobis(2-amidinopropane) dihydrochloride) was obtained from Aldrich (Milwaukee, Wis.). Ascorbic acid and ascorbyl palmitate were purchased from Sigma.
Calculated amounts of DMPC and DHE were pipetted into tubes and dried under N2 until there was no visible solvent; lipids were then dried overnight under vacuum. Next, lipids were reconstituted at 37° C. with 5.0 mL of 50 mM Tris-HCl buffer at pH 7.0 (containing 0.02% NaN3 and 0.1 mM EDTA), then flushed with N2, and vortexed for 2 min at 37° C. to form multilamellar vesicles (MLVs). The MLVs were cooled to 4° C. for 30 min and then incubated at 37° C. for 30 min. This cooling/heating cycle was repeated three times to ensure an even distribution of lipids within each monolayer of the vesicles. After being exposed to three cycles of heat/cold to allow for thorough mixing, vesicles were left for 4 days at room temperature to come to thermal equilibrium. LUVs were then prepared from MLVs by extrusion (Lipex Biomembranes Inc., Vancouver, BC, Canada). The MLVs were extruded at 37° C. 10 times through two stacked 200 nm Nucleopore polycarbonate filters (Costar) under nitrogen gas pressure to form homogeneous LUVs. To avoid auto-oxidation of sterol, the LUV samples were flushed with argon, sealed, and stored in a dessicator chamber under vacuum at room temperature for seven days prior to sterol oxidation measurements (50). During this time, phosphorus concentration was measured again to determine new phospholipid concentration after loss by extrusion (53).
A typical LUV sample set spanned a predicted critical sterol mole fraction (Cr) for maximal superlattice formation. […]

[2] = AAPH-induced sterol oxidation, initial rate (Ri) vs sterol mol %; type: biochemical
Description: The main purpose of this assay is to determine the Cth value for the antioxidant ALA, which is both water and lipid soluble. […] Ri came from monitoring DHE fluorescence intensity after addition of AAPH. […] In this case (the right panel in the flow chart—FIG. 9), the initial rate of sterol oxidation (Ri), instead of the lag phase, is used as the parameter to reflect the potency of an antioxidant activity. […] The membrane system is: 1-palmitoyl-2-oleoyl-L-α-phosphatidylcholine (POPC)/porcine brain sphingomyelins (pSPMs)/DHE LUVs. This biphasic change is expected from the sterol superlattice theory and is consistent with our previous finding (43). […] In this case, the Cth value is determined to be >>5 mM, if there is any. Vertical bars are the standard deviations from three independently prepared samples. The experiment was carried out at 37-42° C.
The term “Ri” as used herein means the initial rate of sterol oxidation in sec^−1. Ri can be calculated as follows: Ri equals [(Normalized fluorescence intensity of DHE at time t) minus (normalized fluorescence intensity of DHE at time 0)] divided by (t−0). Initial rate of sterol oxidation is calculated from the slope of DHE fluorescence intensity decrease vs time. […] Each sample set spanning a critical mole fraction must be analyzed separately in order to get an accurate picture for that particular set of vesicles. […] One reason for these slight variations is due to the high sensitivity of fluorescence signals. Fluorescence intensity is a relative value, depending on the amount of fluorophore in the cuvette, sample mixing, temperature fluctuations, and quenching due to impurities in the sample. For this reason, each complete set is analyzed separately, but all sets are normalized so that they can be compared to each other. Each sample set is analyzed by examining the first five to ten minutes of fluorescence decay in a sequential manner. […] Within a sample set, the deviation from linearity can be determined, and the number of minutes that will be used to calculate the initial rate can be defined. […]

[3] = sample set 23.8-26.2 mol %, Cr 25.0 mol %, FIG. 5
[4] = sample set 38.8-41.2 mol %, Cr 40.0 mol %, FIG. 6

| Compound | Cth (threshold antioxidant concentration for sterol superlattice disruption) ([1]; DMPC/DHE LUVs, 37° C., all three sample sets (Cr 20.0, 25.0, 40.0 mol %)) | lag phase length relative to ascorbic acid ([1]; same apparent dose, FIGS. 2 and 3) | Cth (biphasic change in lag phase with sterol content abolished) [1, 3] [µM] | Cth (biphasic change in lag phase with sterol content abolished) [1, 4] [µM] | concentration at which the biphasic profile of lag phase is obliterated ([1]; sample set spanning Cr 20.0 mol % DHE, FIG. 4) [µM] | concentration at which the biphasic profile of lag phase is obliterated ([1]; sample set spanning Cr 25.0 mol % DHE, FIG. 5) [µM] | concentration at which the biphasic profile of lag phase is obliterated ([1]; sample set spanning Cr 40.0 mol % DHE, FIG. 6) [µM] | lag phase in AAPH-induced sterol oxidation ([2]; AAPH-induced DHE fluorescence decay) | effect on initial rate of sterol oxidation (Ri) ([2]; AAPH-induced DHE oxidation, increasing ALA doses) | Cth (from biphasic change of Ri with sterol content) ([2]; POPC/pSPMs/DHE LUVs, Cr 20.0 mol %, 37-42° C., FIG. 8) [mM] | Cth (threshold antioxidant concentration above which biphasic profile of lag phase at Cr is no longer observable) ([1]; sample set 18.8-21.2 mol % DHE in DMPC, Cr 20.0 mol %, FIG. 4) [µM] |
| --- | --- | --- | --- | --- | --- | --- | --- | --- | --- | --- | --- |
| CCCCCCCCCCCCCCCC(=O)OC[C@H](O)[C@H]1OC(=O)C(O)=C1O [ascorbyl palmitate] | 13 to 15 µM and 13.1 to 15.0 µM | much more potent; also recorded: about three | 11.3 to 15.0 | 13.1 to 15.0 | ≥ 15.0 | ≥ 15.0 | ≥ 15.0 |  |  |  |  |
| O=C(O)CCCCC1CCSS1 (stereo not drawn) [ALA, alpha lipoic acid] |  |  |  |  |  |  |  | does not generate a lag phase | Ri decreases with increasing ALA doses; also recorded: dose-dependent decrease | > 5 |  |
| O=C1O[C@H]([C@@H](O)CO)C(O)=C1O [ascorbic acid] |  |  | ≥ 30 | ≥ 120 |  |  |  |  |  |  | ≥ 30 |
